Common to all, as to assay: SelectScreen Kinase Profiling, single point inhibition and IC50 for off-target kinases
Holding throughout (type): biochemical

In assay [1] the target is off-target kinases (Homo sapiens, UniProt P07948). As to conditions: LYN A, ATP Km app, ZLYTE.
Assay [2] addresses off-target kinases (Homo sapiens, UniProt P24941).
Assay [3] concerns the target T1, off-target kinases (Homo sapiens, UniProt Q8TF76).
T1 sequence (Q8TF76 1-798): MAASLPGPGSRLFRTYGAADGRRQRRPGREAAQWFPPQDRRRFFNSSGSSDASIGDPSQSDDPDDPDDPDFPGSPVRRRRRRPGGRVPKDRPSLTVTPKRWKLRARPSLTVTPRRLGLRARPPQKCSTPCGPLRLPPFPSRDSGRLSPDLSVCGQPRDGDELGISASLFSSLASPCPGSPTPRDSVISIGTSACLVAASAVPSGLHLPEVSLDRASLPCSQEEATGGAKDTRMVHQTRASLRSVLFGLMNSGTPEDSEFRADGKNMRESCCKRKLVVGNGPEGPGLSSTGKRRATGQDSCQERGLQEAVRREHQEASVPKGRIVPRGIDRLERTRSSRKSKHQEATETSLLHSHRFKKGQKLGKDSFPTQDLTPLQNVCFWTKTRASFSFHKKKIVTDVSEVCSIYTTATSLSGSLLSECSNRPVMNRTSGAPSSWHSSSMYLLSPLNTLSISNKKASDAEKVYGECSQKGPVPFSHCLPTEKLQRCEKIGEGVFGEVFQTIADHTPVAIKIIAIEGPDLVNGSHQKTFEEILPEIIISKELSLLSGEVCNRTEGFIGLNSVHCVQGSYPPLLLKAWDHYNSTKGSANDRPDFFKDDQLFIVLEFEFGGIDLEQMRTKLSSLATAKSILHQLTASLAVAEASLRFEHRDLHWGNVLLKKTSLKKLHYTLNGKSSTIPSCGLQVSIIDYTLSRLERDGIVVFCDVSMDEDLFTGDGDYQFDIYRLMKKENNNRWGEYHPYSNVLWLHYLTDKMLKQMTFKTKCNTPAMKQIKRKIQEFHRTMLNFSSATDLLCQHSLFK
As to conditions: GSG2 (Haspin); Cmpd1 1000 μM; ATP Km app; Adapta.

The target of assay [4] is T2, off-target kinases (Homo sapiens, UniProt Q8WTQ7).
T2 sequence (Q8WTQ7 1-553): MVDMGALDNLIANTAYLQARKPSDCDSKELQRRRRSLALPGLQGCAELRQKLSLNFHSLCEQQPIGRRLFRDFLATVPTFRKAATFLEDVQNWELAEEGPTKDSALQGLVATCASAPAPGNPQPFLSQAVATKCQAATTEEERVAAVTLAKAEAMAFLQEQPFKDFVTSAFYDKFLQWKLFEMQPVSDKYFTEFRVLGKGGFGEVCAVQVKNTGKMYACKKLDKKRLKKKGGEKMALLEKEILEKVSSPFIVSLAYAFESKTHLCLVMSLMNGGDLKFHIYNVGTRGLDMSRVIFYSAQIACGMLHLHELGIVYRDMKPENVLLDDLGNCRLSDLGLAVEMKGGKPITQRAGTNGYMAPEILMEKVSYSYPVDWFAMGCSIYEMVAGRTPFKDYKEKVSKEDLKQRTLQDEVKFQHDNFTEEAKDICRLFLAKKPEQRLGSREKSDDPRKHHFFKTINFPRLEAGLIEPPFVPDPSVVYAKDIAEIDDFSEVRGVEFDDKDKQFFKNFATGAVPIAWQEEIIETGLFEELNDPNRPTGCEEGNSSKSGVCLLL
As to conditions: GRK7, ZLYTE, ATP Km app.

Each structure is given as a SMILES string. Where two headings read alike, the source gives them in different places.

Sequence of off-target kinases (Homo sapiens, UniProt P07948) (P07948 whole entry): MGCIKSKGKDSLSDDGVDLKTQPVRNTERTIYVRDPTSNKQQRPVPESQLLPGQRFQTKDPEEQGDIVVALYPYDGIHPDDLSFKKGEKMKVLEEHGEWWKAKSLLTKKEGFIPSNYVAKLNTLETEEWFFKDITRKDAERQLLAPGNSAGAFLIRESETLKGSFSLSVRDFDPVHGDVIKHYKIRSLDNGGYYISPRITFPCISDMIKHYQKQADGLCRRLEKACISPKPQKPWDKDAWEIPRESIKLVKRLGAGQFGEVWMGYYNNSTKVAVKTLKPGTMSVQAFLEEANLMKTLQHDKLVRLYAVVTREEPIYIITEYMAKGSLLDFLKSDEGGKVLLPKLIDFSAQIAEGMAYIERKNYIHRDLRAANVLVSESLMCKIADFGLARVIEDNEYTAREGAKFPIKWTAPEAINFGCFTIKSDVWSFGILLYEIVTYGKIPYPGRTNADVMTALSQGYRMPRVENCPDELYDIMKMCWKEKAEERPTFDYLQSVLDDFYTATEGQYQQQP

By inhibition is commonly meant the percentage by which the read-out fell short of the control. As to `N#Cc1cc(-c2ncnc(Nc3ccc(N4CCN(C5COC5)CC4)cc3)n2)ccc1OC1CCOCC1` [Compound 1, 5-(4-((4-(4-(oxetan-3-yl)piperazin-1-yl)phenyl)amino)-1,3,5-triazin-2-yl)-2-((tetrahydro-2H-pyran-4-yl)oxy)benzonitrile], the inhibition on off-target kinases [1] (read-out: % Inhibition 1) is 48%; on off-target kinases [1] (read-out: % Inhibition 2) it was 48%; at off-target kinases [1] (read-out: % Inhibition Avg), 48%; at off-target kinases [2] (CDK2/cyclin A1, LanthaScreen Binding, read-out: % Inhibition 1) it was 33%; on off-target kinases [2] (CDK2/cyclin A1, LanthaScreen Binding, read-out: % Inhibition 2), 39%; at off-target kinases [2] (CDK2/cyclin A1, LanthaScreen Binding, read-out: % Inhibition Avg), 36%. In addition, the inhibition on off-target kinases [2] (CDK2/cyclin A2, LanthaScreen Binding, read-out: % Inhibition 1) is 24%; on off-target kinases [2] (CDK2/cyclin A2, LanthaScreen Binding, read-out: % Inhibition 2), 29%; on off-target kinases [2] (CDK2/cyclin A2, LanthaScreen Binding, read-out: % Inhibition Avg) it was 26%; at off-target kinases [2] (CDK2/cyclin A, ZLYTE, ATP Km app, read-out: % Inhibition 1) it was 38%; on off-target kinases [2] (CDK2/cyclin A, ZLYTE, ATP Km app, read-out: % Inhibition 2) it was 36%; at off-target kinases [2] (CDK2/cyclin A, ZLYTE, ATP Km app, read-out: % Inhibition Avg) it was 37%. Also, the inhibition on off-target kinases [2] (CDK2/cyclin E1, LanthaScreen Binding, read-out: % Inhibition 1) was 15%; on off-target kinases [2] (CDK2/cyclin E1, LanthaScreen Binding, read-out: % Inhibition 2) it was 17%; at off-target kinases [2] (CDK2/cyclin E1, LanthaScreen Binding, read-out: % Inhibition Avg), 16%; on off-target kinases [2] (CDK2/cyclin O, LanthaScreen, read-out: % Inhibition 1), 39%; at off-target kinases [2] (CDK2/cyclin O, LanthaScreen, read-out: % Inhibition 2), 42%; on off-target kinases [2] (CDK2/cyclin O, LanthaScreen, read-out: % Inhibition Avg) it was 41%. The values for the inhibition on off-target kinases [4] (read-out: % Inhibition 1), at off-target kinases [4] (read-out: % Inhibition 2) and at off-target kinases [4] (read-out: % Inhibition Avg) were 3%, 5% and 4%, respectively. The “% Inhibition 1” value on off-target kinases [3] is 7%. Further, on off-target kinases [3], the “% Inhibition 2” value is −20%. Also, at off-target kinases [3], the “% Inhibition Avg” value is recorded as −6%.

The values are drawn from patent publication US11572590B2, “Methods for evaluating tumor cell spheroids using 3D microfluidic cell culture device” (Dana-Farber Cancer Institute, Inc., priority 2017, dated 2023).
